The conditions of data set [1]: cited from earlier work; for pungency: compared with capsaicin; for taste: as a dry powder and as an alcoholic or aqueous solution.
Data set [2] relates to professional sensory panel. The data set is described as follows: aqueous solutions in 0.5% salt and 0.05% MSG tasted by a professional sensory panel. It is filed as in vivo. The method, then:
Six aqueous solutions were prepared: A. 0.5% salt and 0.05% MSG The solutions were tasted by a professional sensory panel. Three aqueous solutions were prepared: A. 0.5% salt and 0.05% MSG The solutions were tasted by a professional sensory panel. Solution A was described as: “salty”. […] Three aqueous solutions were prepared: A. 0.5% salt and 0.05% MSG The solutions were tasted by a professional sensory panel. Solution A was described as: “salty” and “umami”.

For data set [3], the system named is sensory panel. The data set is described as follows: tomato soups (10 g powder in 100 ml hot water) tasted and evaluated by a sensory panel. It is filed as in vivo. The settings on record: for perceived saltiness versus product A (control) / taste description: 50% reduced salt. The method, then:
[table] 10 Gram of each composition was mixed with 100 ml hot water to obtain tomato soups. The different soups were tasted and evaluated by a sensory panel.

Data set [4] relates to sensory panel. The data set is described as follows: sweetened 0% fat red fruit yoghurts tasted and evaluated by a sensory panel. It is filed as in vivo. Here is the method: Three yoghurts were prepared according to the recipe in table 2. [table] All products were tasted and evaluated by a sensory panel.
Where [5] appears, read: product D: 0.3 mg per 100 g tomato soup powder.
Setting [6] is: Yoghurt C: 0.15 microgram per 100 g yoghurt.
The mark [7] stands for this setting: 0.1 ppt in 0.5% salt and 0.05% MSG (Example 4, solution C).
[8] abbreviates: 1 ppb in 0.5% salt and 0.05% MSG (Example 3, solution E).
[9] abbreviates: 10 ppt in 0.5% salt and 0.05% MSG (Example 4, solution D).
Setting [10] is: 30 ppb in 0.5% salt and 0.05% MSG (Example 3, solution F).
Where [11] appears, read: product C: 0.005 mg per 100 g tomato soup powder.
Where [12] appears, read: Yoghurt B: 0.003 microgram per 100 g yoghurt.

The values below come from patent publication US8293215B2, “Flavour modulating derivative of a carboxylic acid and a purine, pyrimidine, nucleoside, or nucleotide” (Givaudan Nederland Services B.V., priority 2006, dated 2012).

On to o-tolylvanillylthiourea, for which, in data set [1], the pungency entry is reported as “property of pungency but to a lesser degree than capsaicin”.

For the molecule `COc1cc(CNC(N)=S)ccc1O` [vanillylthiourea], the taste result in data set [1] is on record as “tasteless”.

For p-tolylvanillylthiourea, the pungency entry in data set [1] was “property of pungency but to a lesser degree than capsaicin”.

Turning to `COc1cc(CNC(N)=O)ccc1O` [Vanillylurea], the taste result in data set [1] was “tasteless”.

On to `CC(O)C(=O)Nc1nc2c(ncn2[C@@H]2O[C@H](COP(=O)(O)O)[C@@H](O)[C@H]2O)c(=O)[nH]1` (stereo partly drawn) [lactoyl-GMP, reference compound], for which the taste description result in data set [2] (0.6 ppb in 0.5% salt and 0.05% MSG) was ““sweet”, “lingering umami”, “more salivating””. Moreover, the “taste strength compared with solution C (0.2 ppm process flavour containing 0.3% lactoyl-GMP)” value in data set [2] (0.6 ppb in 0.5% salt and 0.05% MSG (Example 3, solution D)) is reported as “stronger than C”. Further, in the data set on sensory panel [3] (setting [5]), the “preference versus product B (50% reduced salt)” value is “clearly preferred over product B”; the “perceived saltiness versus product A (control)” value was “comparable to that of product A”; the taste description result was ““more taste”, “more impact”, “more kokumi”, “long lasting” and “salivating””. In the data set on sensory panel [4] (setting [6]), the “preference versus product A (yoghurt without modulator)” value is recorded as “clearly preferred over product A”; the taste description result is “sweet, fuller, more natural berry-like, fruity and more balanced flavour”.

In the case of `CC(=O)Nc1nc2c(ncn2[C@@H]2O[C@H](COP(=O)(O)O)[C@@H](O)[C@H]2O)c(=O)[nH]1` [acetyl-GMP, N-acetyl-GMP], in data set [2] (setting [7]), the “share of the panel that found this detectable” value amounted to 40% and the taste description entry is reported as ““sweet”, “umami””. In data set [2] (setting [8]), the taste description entry is recorded as ““salivating”, “salty”” and the “taste strength compared with solution D (0.6 ppb lactoyl-GMP)” value is recorded as “stronger than D”. In data set [2] (1 ppt in 0.5% salt and 0.05% MSG (Example 8, solution C)), the taste description entry is ““sweet”, “umami””. Further, in data set [2] (setting [9]), the “share of the panel that found this detectable” value is reported as 100%; the “strength of the taste compared with solution B (0.6 ppb lactoyl-GMP)” value is given as “comparable”; the taste description result is listed as ““sweet”, “umami””. Further, in data set [2] (setting [10]), the taste description entry is listed as ““salivating”, “salty”” and the “taste strength compared with solution E (1 ppb acetyl-GMP)” value is listed as “stronger than E”. Moreover, in the data set on sensory panel [3] (setting [11]), the “preference versus product B (50% reduced salt)” value is on record as “clearly preferred over product B”; the “perceived saltiness versus product A (control)” value was “comparable to that of product A”; the taste description entry was ““more taste”, “more impact”, “more kokumi”, “long lasting” and “salivating””. In addition, in the data set on sensory panel [4] (setting [12]), the “preference versus product A (yoghurt without modulator)” value is on record as “clearly preferred over product A”; the “strength compared with product C (0.15 microgram lactoyl-GMP per 100 g)” value is on record as “comparable”; the taste description entry was “sweet, fuller, more natural berry-like, fruity and more balanced flavour”.

phenylvanillylthiourea: in data set [1], the taste entry was “tasteless” and the pungency result is “property of pungency but to a lesser degree than capsaicin”.

For `Nc1nc2c(ncn2[C@@H]2O[C@H](COP(=O)(O)O)[C@@H](O)[C@H]2O)c(=O)[nH]1` [GMP, guanosine 5′-monophosphate, reference compound], the taste description result in data set [2] (1 ppm in 0.5% salt and 0.05% MSG (Example 3, solution B)) is on record as ““sweet”, “lingering umami””.
